Results as given in patent publication US20220306695A1, “COMPSTATIN ANALOGUES AND THEIR MEDICAL USES” (priority 2019, published 2022).
Read-outs that look alike come from different tables or passages of the source. Starred links: 1 amine or outer side, 2 acyl side, 3 side chain; linkers in the order of their positions; H or OH if unused. Positions of bridges follow the written chain, without caps; N, C: chain ends. Non-standard residues stand in square brackets, D forms with d. Residues, ends and D or L forms follow the SMILES beside them. Groups on a side chain read outwards from the residue. *: point of attachment. Trp(1-Me) = Cn1cc(C[C@H](N)C(=O)O)c2ccccc21; Abu(4-yl) = O=C([C@H](CC[*:3])N[*:1])[*:2]; C18 diacid = O=C(O)CCCCCCCCCCCCCCCCC(=O)*; γGlu = O=C(O)[C@H](CCC(=O)[*:2])N[*:1]; AEEA = NCCOCCOCC(=O)O; Sar = CNCC(=O)O

How the values were obtained:
[1] = tested on: classical complement pathway; experiment: In vitro haemolysis assay (inhibition of classical complement pathway); type: cell-based, human
How it was run: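 Serially diluted compound (9 points) was preincubated 15 min at room temperature with diluted human serum, titrated per batch to give 70-90% maximal haemolysis, in Tris/casein buffer pH 7.4 with Mg2+/Ca2+. Antibody-sensitized sheep erythrocytes were then added for 30 min at 37° C, and the reaction was stopped with EDTA. Haemolysis was read at A405, with IC50 from 4PL fit.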

[2] = Solubility test at 10 mg/mL (visual inspection and light scattering); type: physicochemical; conditions: for Solubility, Condition 1 Acetate pH 4: 10 mg/mL compound in 100 mM acetate pH 4; for Solubility, Condition 2 Acetate pH 5: 10 mg/mL compound in 100 mM acetate pH 5; for Solubility, Condition 3 Phosphate pH 6: 10 mg/mL compound in 100 mM phosphate pH 6; for Solubility, Condition 4 Phosphate pH 7: 10 mg/mL compound in 100 mM phosphate pH 7; for Solubility, Condition 5 Phosphate pH 7.5: 10 mg/mL compound in 100 mM phosphate pH 7.5
Human C3 = target: T1, Human C3 (Homo sapiens, UniProt P01024); experiment: Affinity measurement by surface plasmon resonance (SPR) with immobilized C3; type: binding; conditions: Table 7; immobilized C3, 25° C., pH 7.4
T1 construct: purchased Complement tech A1 13c (so in the source)
Description: Surface plasmon resonance (SPR) was used to characterize peptides with respect to their binding affinity (Kd) for C3. Human C3 (Complement tech cat #A1 13c) was immobilised on individual flow cells of CM5 sensor chips (GE Healthcare) using standard amine coupling to a density of approximately 3000 resonance units (RU) in a buffer consisting of 10 mM phosphate pH 7.4, 150 mM NaCl, 0.05% Tween20. For interaction experiments a multi-cycle experiment approach was used and performed using either a Biacore™ T200 or Biacore™ X100 instrument (GE Healthcare) at 25° C. Peptides were injected in increasing concentration series (5-8 different concentrations) for 60-120 s at a flow rate of 30 μL/min in a buffer consisting of 10 mM Tris buffer at pH 7.4, with 150 mM NaCl and 0.05% Tween20. This was followed by a dissociation period for up to 10 min. […] Sensorgrams were double-referenced (reference surface, blanks) prior to analysis of the kinetic profiles by globally fitting data to a 1:1 Langmuir binding model to obtain association and dissociation rates for calculation of the equilibrium dissociation constant Kd. Each peptide was tested at in at least 2 independent experiments.

in vivo = experiment: in vivo; design: species or system Cynomolgus monkeys (Macaca fascicularis); conditions: male, cynomolgus monkey, sc, 1840 nmol/kg, t½
Description: Healthy male Cynomolgus monkeys (Macaca fascicularis) received single subcutaneous administrations of each test substance. Compounds were formulated in 20 mM phosphate adjusted with NaOH to pH 7.5 and mannitol for isotonicity and dosed at 1840 nmol/kg. Blood was collected from a femoral vein from each animal at the following times: Pre-dose, 1, 2, 4, 8, 24, 48, 72, 96 and 120 h (10 sampling times). Blood was collected into serum separation tubes and allowed to clot at room temperature. The tubes were centrifuged and resulting serum was aliquoted and snap-frozen over dry-ice and stored at nominally −80° C. until analysis. All NHP studies were performed in accordance with animal welfare laws and regulations, including approval of the study by a local ethical review process.
In order to assess pharmacokinetic half-life (t %/), serum samples isolated from non-human primates at specific time points after dosing were analysed for total drug compound after sample preparation by solid phase extraction (SPE) and liquid chromatography mass spectrometry (LC-MS/MS) using analogue internal standard. Single measurement of serum concentrations were used for calculation of the pharmacokinetic parameters using the non-compartmental approach in Phoenix WinNonlin 6.3. Plasma terminal elimination half-life (ty) was determined as In(2)/λz where λz is the magnitude of the slope of the log linear regression of the log concentration versus time profile during the terminal phase.

[3] = Table 3, human serum, sensitized sheep red blood cells, read-out: IC50[nM], in vitro analysis of inhibition of hemolysis
[4] = Table 4, valine 3 versus isoleucine 3 pairs, read-out: CP hemolysis IC50

In the case of `CC[C@H](C)[C@H](NC(C)=O)C(=O)N[C@H]1CSSC[C@@H](C(=O)N[C@H](C(=O)NCC(=O)N[C@@H](C)C(=O)N[C@@H](CCC(=O)O)C(=O)N[C@@H](CO)C(N)=O)[C@@H](C)O)NC(=O)[C@H](CCCNC(=N)N)NC(=O)[C@H](Cc2c[nH]cn2)NC(=O)[C@H](CCC(=O)O)NC(=O)CNC(=O)[C@H](Cc2c[nH]c3ccccc23)NC(=O)[C@H](CC(=O)O)NC(=O)[C@H](CCC(N)=O)NC(=O)[C@H](Cc2c[nH]c3ccccc23)NC(=O)[C@H]([C@@H](C)CC)NC1=O` [Compound 15] (Ac-ICIWQDWGEHRCTGAES-NH2; disulfide 2-12), the IC50 [1, 3] is reported as < 100 nM, the IC50 [1, 4] is reported as 47 nM and the “Solubility, Condition 1 Acetate pH 4” value [2] is reported as “+ (denotes solubility at the given condition, as determined by UV absorbance being less than 0.1 AU at 340 nm and the sample being clear when manually inspected.)”. For the same molecule, the “Solubility, Condition 2 Acetate pH 5” value [2] was “− (denotes lack of solubility at the given condition, as UV absorbance at 340 nm exceeds 0.1 AU and/or it is visibly turbid or contains particles.)”, the “Solubility, Condition 3 Phosphate pH 6” value [2] was “− (denotes lack of solubility at the given condition, as UV absorbance at 340 nm exceeds 0.1 AU and/or it is visibly turbid or contains particles.)” and the “Solubility, Condition 4 Phosphate pH 7” value [2] was “+ (denotes solubility at the given condition, as determined by UV absorbance being less than 0.1 AU at 340 nm and the sample being clear when manually inspected.)”. The “Solubility, Condition 5 Phosphate pH 7.5” value [2] was “+ (denotes solubility at the given condition, as determined by UV absorbance being less than 0.1 AU at 340 nm and the sample being clear when manually inspected.)” and the Kd (Human C3) was 14 nM.

In the case of `CC[C@H](C)[C@H](NC(C)=O)C(=O)N[C@H]1CSSC[C@@H](C(=O)N[C@H](C(=O)N[C@@H](CCC(=O)O)C(=O)NCC(=O)N[C@@H](CCC(=O)O)C(N)=O)[C@@H](C)O)NC(=O)[C@H](CCCNC(=N)N)NC(=O)[C@H](Cc2c[nH]cn2)NC(=O)[C@H](CCC(=O)O)NC(=O)CNC(=O)[C@H](Cc2c[nH]c3ccccc23)NC(=O)[C@H](CC(=O)O)NC(=O)[C@H](CCC(N)=O)NC(=O)[C@H](Cc2c[nH]c3ccccc23)NC(=O)[C@H]([C@@H](C)CC)NC1=O` [Compound 24] (Ac-ICIWQDWGEHRCTEGE-NH2; disulfide 2-12), the IC50 [1, 3] is reported as < 100 nM, the IC50 [1, 4] is reported as 90 nM and the “Solubility, Condition 1 Acetate pH 4” value [2] is reported as “− (denotes lack of solubility at the given condition, as UV absorbance at 340 nm exceeds 0.1 AU and/or it is visibly turbid or contains particles.)”. For the same molecule, the “Solubility, Condition 2 Acetate pH 5” value [2] was “− (denotes lack of solubility at the given condition, as UV absorbance at 340 nm exceeds 0.1 AU and/or it is visibly turbid or contains particles.)”, the “Solubility, Condition 3 Phosphate pH 6” value [2] was “− (denotes lack of solubility at the given condition, as UV absorbance at 340 nm exceeds 0.1 AU and/or it is visibly turbid or contains particles.)” and the “Solubility, Condition 4 Phosphate pH 7” value [2] was “+ (denotes solubility at the given condition, as determined by UV absorbance being less than 0.1 AU at 340 nm and the sample being clear when manually inspected.)”. The “Solubility, Condition 5 Phosphate pH 7.5” value [2] was “+ (denotes solubility at the given condition, as determined by UV absorbance being less than 0.1 AU at 340 nm and the sample being clear when manually inspected.)”, the “Solubility by visual inspection and absorbance, condition 1, 2 and 3” value ([2]; 10 mg/mL, acetate pH 4.0, acetate pH 5.0, phosphate pH 6.0, all exceeding 0.1 AU threshold) was “cloudy” and the “Solubility by visual inspection and absorbance, condition 4 and 5” value ([2]; 10 mg/mL, phosphate pH 7 and phosphate pH 7.5) was “good conditions for solubility”. The Kd (Human C3) was 28 nM.

In the case of `CC[C@H](C)[C@@H]1NC(=O)[C@@H](NC(=O)[C@H](Cc2ccccc2)NC(=O)[C@H](C)NC(=O)[C@H](CO)NC(=O)CNC(=O)[C@H](CCC(=O)O)NC(C)=O)CSSC[C@@H](C(=O)N(C)CC(=O)N[C@@H](CCC(=O)O)C(N)=O)NC(=O)[C@H](CCCNC(=N)N)NC(=O)[C@H](Cc2c[nH]cn2)NC(=O)[C@H](CCC(=O)O)NC(=O)CNC(=O)[C@H](Cc2c[nH]c3ccccc23)NC(=O)[C@H](CC(=O)O)NC(=O)[C@H](CCC(N)=O)NC(=O)[C@H](Cc2cn(C)c3ccccc23)NC1=O` [Compound 53] (Ac-EGSAFCI[Trp(1-Me)]QDWGEHRC[Sar]E-NH2; disulfide 6-16), the IC50 [1, 3] is reported as < 100 nM, the “Solubility, Condition 1 Acetate pH 4” value [2] is reported as “− (denotes lack of solubility at the given condition, as UV absorbance at 340 nm exceeds 0.1 AU and/or it is visibly turbid or contains particles.)” and the “Solubility, Condition 2 Acetate pH 5” value [2] is reported as “− (denotes lack of solubility at the given condition, as UV absorbance at 340 nm exceeds 0.1 AU and/or it is visibly turbid or contains particles.)”. The “Solubility, Condition 3 Phosphate pH 6” value [2] was “+ (denotes solubility at the given condition, as determined by UV absorbance being less than 0.1 AU at 340 nm and the sample being clear when manually inspected.)”, the “Solubility, Condition 4 Phosphate pH 7” value [2] was “+ (denotes solubility at the given condition, as determined by UV absorbance being less than 0.1 AU at 340 nm and the sample being clear when manually inspected.)” and the “Solubility, Condition 5 Phosphate pH 7.5” value [2] was “+ (denotes solubility at the given condition, as determined by UV absorbance being less than 0.1 AU at 340 nm and the sample being clear when manually inspected.)”. For the same molecule, the Kd (Human C3) was 1.4 nM.

For `CC[C@H](C)[C@@H]1NC(=O)[C@@H](NC(=O)[C@H](Cc2ccc(O)cc2)NC(=O)[C@H](CCC(=O)O)NC(=O)[C@H](CO)NC(C)=O)CSSC[C@@H](C(=O)N(C)CC(=O)N[C@@H](CCC(=O)O)C(=O)NCC(=O)N[C@@H](C)C(=O)N[C@@H](CCCCNC(=O)COCCOCCNC(=O)CC[C@H](NC(=O)COCCOCCNC(=O)CNC(=O)CC[C@H](NC(=O)CCCCCCCCCCCCCCCCC(=O)O)C(=O)O)C(=O)O)C(N)=O)NC(=O)[C@H](CCCNC(=N)N)NC(=O)[C@H](Cc2c[nH]cn2)NC(=O)[C@H](CCC(=O)O)NC(=O)CNC(=O)[C@H](Cc2c[nH]c3ccccc23)NC(=O)[C@H](CCC(=O)O)NC(=O)[C@H](CCC(N)=O)NC(=O)[C@H](Cc2cn(C)c3ccccc23)NC1=O` [Compound 122] (Ac-SEYCI[Trp(1-Me)]QEWGEHRC[Sar]EGAK([AEEA-γGlu-AEEA-Gly-γGlu-C18 diacid])-NH2; disulfide 4-14), the IC50 [1, 3] was < 500 nM and the half-life (in vivo) was 127 h.

With `CC[C@H](C)[C@@H]1NC(=O)[C@@H](NC(=O)[C@H](Cc2ccccc2)NC(=O)[C@H](CCC(=O)O)NC(=O)[C@H](CO)NC(C)=O)CSSC[C@@H](C(=O)N(C)CC(=O)N[C@@H](CCC(=O)O)C(=O)NCC(=O)N[C@@H](CCC(=O)O)C(=O)NCCOCCOCC(=O)NCCOCCOCC(=O)N[C@@H](CCCCNC(=O)CC[C@H](NC(=O)CNC(=O)CC[C@H](NC(=O)CCCCCCCCCCCCCCCCC(=O)O)C(=O)O)C(=O)O)C(N)=O)NC(=O)[C@H](CCCNC(=N)N)NC(=O)[C@H](Cc2c[nH]cn2)NC(=O)[C@H](CCC(=O)O)NC(=O)CNC(=O)[C@H](Cc2c[nH]c3ccccc23)NC(=O)[C@H](CCC(=O)O)NC(=O)[C@H](CCC(N)=O)NC(=O)[C@H](Cc2cn(C)c3ccccc23)NC1=O` [Compound 124] (Ac-SEFCI[Trp(1-Me)]QEWGEHRC[Sar]EGE[AEEA][AEEA]K([γGlu-Gly-γGlu-C18 diacid])-NH2; disulfide 4-14) the IC50 [1, 3] was < 100 nM and the half-life (in vivo) was 112 h.

In the case of `CC[C@H](C)[C@@H]1NC(=O)[C@@H](NC(=O)[C@H](Cc2ccccc2)NC(=O)[C@H](CCC(=O)O)NC(=O)[C@H](CO)NC(C)=O)CCSC[C@@H](C(=O)N(C)CC(=O)N[C@@H](CCC(=O)O)C(=O)NCC(=O)N[C@@H](CCC(=O)O)C(=O)NCCOCCOCC(=O)N[C@@H](CCC(=O)O)C(=O)N[C@@H](CO)C(=O)N[C@@H](CCCCNC(=O)CC[C@H](NC(=O)CNC(=O)CC[C@H](NC(=O)CCCCCCCCCCCCCCCCC(=O)O)C(=O)O)C(=O)O)C(N)=O)NC(=O)[C@H](CCCNC(=N)N)NC(=O)[C@H](Cc2c[nH]cn2)NC(=O)[C@H](CCC(=O)O)NC(=O)CN(C)C(=O)[C@H](Cc2c[nH]c3ccccc23)NC(=O)[C@H](CC(=O)O)NC(=O)[C@H](CCC(N)=O)NC(=O)[C@H](Cc2cn(C)c3ccccc23)NC1=O` [Compound 166, Ac-SEFhC(1)I[1-Me-Trp]QDW[Sar]EHRA(1)[Sar]EGE[Peg3]ES-K([17-carboxy-heptadecanoyl][γGlu]G[γGlu])-NH2] (Ac-SEF[Abu(4-yl)]I[Trp(1-Me)]QDW[Sar]EHRC[Sar]EGE[AEEA]ESK([γGlu-Gly-γGlu-C18 diacid])-NH2; thioether 4-14), the IC50 [1, 3] is reported as < 100 nM and the Kd (Human C3) is reported as 6.5 nM.
